Assay results: US10899962B2, “Camera module, lubricant composition, and electronic device” (Samsung Electro-Mechanics Co., Ltd., priority 2018, dated 2021)

Experiment: solubility of the fluorinated fluorescent material at varied concentrations (FIG. 8, FIG. 11)
Format: physicochemical
Details: concentrations shown 0.25 wt %, 0.5 wt %, and 1 wt %
Source text: More specifically, when using a compound represented by Chemical Formula 1, for example, a compound represented by Chemical Formula 1-1 for the fluorinated fluorescent material, the fluorinated fluorescent material is included, for example, in an amount from 0.1 wt % to less than 0.5 wt %, or even, for example, in an amount from 0.1 wt % to 0.3 wt %. This can be confirmed from FIG. 8 to FIG. 10. […] Referring to the drawings, it can be seen that solubility issues occur in concentrations of 0.5 wt % or higher. FIG. 9 and FIG. 10 show the fluorescence of a lubricant composition containing 0.25 wt % of a compound represented by Chemical Formula 1-1. […] From the drawings, it can be seen that the presence of the lubricant can be easily detected after application of the lubricant composition.
Furthermore, when using a compound represented by Chemical Formula 2, for example, a compound represented by Chemical Formula 2-1 for the fluorinated fluorescent material, the fluorinated fluorescent material is included, for example, in an amount from 0.01 wt % to less than 1.0 wt %, or even included, for example, in an amount from 0.03 wt % to 0.15 wt %. This can be confirmed from FIG. 11. […] Referring to the drawing, it can be seen that solubility issues occur in concentrations of 1.0 wt % or higher.

CCN(CC)c1ccc2c(C)cc(=O)oc2c1 [Chemical Formula 1-1]
concentrations in which solubility issues occur: ≥ 0.5 wt %
